Experimental data taken from the NIST ThermoML archive (doi:10.1021/je060411g).

Tests used:
[1] = molar heat capacity at constant pressure; conditions: 101.33 kPa
[2] = Glass

CC(C)CCO [3-methylbutan-1-ol]
[1]
Conditions | molar heat capacity at constant pressure [J/K/mol]
79.29 K, Glass | 64.16
79.93 K, Glass | 64.23
81.22 K, Glass | 65.13
83.16 K, Glass | 66.6
85.07 K, Glass | 67.98
86.97 K, Glass | 69.22
88.88 K, Glass | 70.53
90.79 K, Glass | 71.96
92.71 K, Glass | 73.36
94.62 K, Glass | 74.71
96.54 K, Glass | 76.12
98.47 K, Glass | 77.7
100.4 K, Glass | 79.43
102.33 K, Glass | 80.27
104.26 K, Glass | 81.54
106.19 K, Glass | 83.08
108.13 K, Glass | 84.68
110.07 K, Glass | 86.19
112.01 K, Glass | 87.96
113.94 K, Glass | 90.43
115.88 K, Glass | 94.62
123.04 K, Liquid | 144.09
124.93 K, Liquid | 144.11
126.89 K, Liquid | 144.29
128.85 K, Liquid | 144.62
130.82 K, Liquid | 144.96
132.79 K, Liquid | 145.22
134.76 K, Liquid | 145.47
136.73 K, Liquid | 145.74
138.7 K, Liquid | 146.13
140.67 K, Liquid | 146.33
142.65 K, Liquid | 146.61
144.62 K, Liquid | 146.82
146.59 K, Liquid | 147.14
148.57 K, Liquid | 147.5
150.54 K, Liquid | 147.86
152.52 K, Liquid | 148.08
154.49 K, Liquid | 148.41
156.46 K, Liquid | 148.76
158.43 K, Liquid | 148.95
160.41 K, Liquid | 149.4
162.38 K, Liquid | 149.76
164.35 K, Liquid | 149.96
166.32 K, Liquid | 150.38
168.29 K, Liquid | 150.9
170.27 K, Liquid | 151.21
172.24 K, Liquid | 151.76
174.21 K, Liquid | 152.03
176.19 K, Liquid | 152.42
178.16 K, Liquid | 152.92
180.14 K, Liquid | 153.49
182.11 K, Liquid | 153.84
184.09 K, Liquid | 154.42
186.07 K, Liquid | 154.93
188.05 K, Liquid | 155.51
190.03 K, Liquid | 156.14
192.01 K, Liquid | 156.62
193.99 K, Liquid | 157.15
195.96 K, Liquid | 157.72
197.94 K, Liquid | 158.12
199.92 K, Liquid | 158.79
201.91 K, Liquid | 159.5

Conditions | Glass transition temperature [°C]
[2] | -155
